Measurements as given in a melting point compilation (Tetko et al.; mined from patent text by program, amines drawn as free bases though some values may be those of a salt).
Non-standard residues stand in square brackets, D forms with d. Residues, ends and D or L forms follow the SMILES beside them. ξ: configuration not given here. *: point of attachment. ξQ = NC(=O)CCC(N)C(=O)O; Cbz = O=C(OCc1ccccc1)*

| melting point [°C] | Structure (SMILES) |
| --- | --- |
| 53 to 56 | CC(=O)OC(c1ccccc1F)c1scnc1C (stereo not given) |
| 212 to 214 | OCc1c[nH]c(-c2ccc(O)cc2)n1 |
| 287 to 289 | CCn1cc(C(=O)O)c(=O)c2cc(F)c(N3CCC(NCC(C)=O)C3)nc21 (stereo not given) |
| 223 to 224 | CCCCSc1c(N)cc(C(=O)O)cc1S(N)(=O)=O |
| 285 to 287 | O=C(O)c1ccc2c(c1)C(=O)C(=Cc1ccccc1)O2 |
| 108 to 109 | C=C(C)C(=O)Oc1ccc(S(=O)(=O)ON=C2CCCc3ccccc32)cc1 |
| 139 | NC[C@@H]1C(=O)N[C@H]1SC(c1ccccc1)(c1ccccc1)c1ccccc1 (relative stereo) |
| 240 | N#Cc1ccc2c(c1)-c1ccccc1OP2(=O)O |
| 88 | O=C/C=C/c1cc2ccccc2s1 |
| 246 to 249 | CC(C)=CCNc1ncnc2nc(N(C)C)[nH]c12 |
| 146 to 149 | CCOc1cc(Cc2cnc(N)nc2N)cc(OCC)c1-c1ccc(CNCC(F)(F)F)cc1 |
| 148 to 150 | O=C(Oc1ccc([N+](=O)[O-])cc1)c1ccnc(F)c1 |
| 240 | Cc1c(O)cccc1C1=N[C@H]([C@H](O)CN2C[C@H]3CCCC[C@H]3C[C@H]2C(=O)NC(C)(C)C)CO1 |
| 144 to 145 | CN(C)CCCC1(C(=O)O)CCCCC1(O)c1ccccc1 (stereo not given) |
| 92 to 94 | C=C(C)c1cc(C(=O)OC)c(OCc2ccccc2)cc1OCc1ccccc1 |
| 240 to 241 | CCCCc1nc2c(N)nc3cc(-c4cccnc4)ccc3c2n1CCNC(=O)NC(C)C |
| 105 to 107 | CCOC(=O)CCCCn1c(=O)[nH]c2ccc(OCOCCOC)cc2c1=O |
| 158 to 160 | CCOC(=O)c1c(CN=[N+]=[N-])cccc1S(=O)(=O)NC(=O)Nc1nc(OC)cc(OC)n1 |
| 107 to 109 | CCCSc1ncnc2c(N3CCCCC3)nc(Cl)nc12 |
| 116 to 120 | CNC(=O)c1ccc(-c2ccc3oc(C4CCN(C(=O)OC(C)C)CC4)nc3c2)cc1F |
| 218 to 220 | COc1cc(CC(=O)O)ccc1N(C(N)=O)c1ccccc1C(F)(F)F |
| 131 | OC(CNCC(O)C1CCc2ccccc2O1)C1CCc2ccccc2O1 (stereo not given) |
| 106 | COc1cccc(C(O)C2c3ccccc3Cc3ccccc32)c1 (stereo not given) |
| 214 to 215 | C[C@@H]1O[C@](C#Cc2ccoc2)(C(F)(F)F)c2cc(Cl)ccc2NC1=O (relative stereo) |
| 110 to 112 | COc1cc(C)ccc1S(=O)(=O)OC(Cl)C(=O)c1ccccc1 (stereo not given) |

| melting point [°C] | Structure (SMILES) |
| --- | --- |
| 161 to 162 | COC(=O)c1c(N)ncn1C1c2ccsc2CC1(C)C (stereo not given) |
| 122 to 125 | CCn1ncc(OCc2ccc([Si](C)(C)C)cc2)c(Cl)c1=O |
| 107 | COc1ccc(N2CCN(N)CC2)cc1 |
| 111 to 113 | COC(=O)c1cn(CCN)c(Cl)c1-c1cccc(C#N)c1 |
| 142 to 143 | CSc1ncc(CO)c(Nc2ccccc2)n1 |
| 66 to 69 | COC(=O)c1cc(C(C)=O)c(C(F)(F)F)cc1NC(C)=O |
| 170 to 171 | COc1ccc(CC(SC)C(=O)O)cc1C(=O)NCc1ccc(C(F)(F)F)cc1 (stereo not given) |
| 202 | CS(=O)(=O)c1nccc(-n2nnc3ccccc32)n1 |
| 124 to 125 | CCCN1C(=O)N2C[C@@H](Cc3ccccc3)N=C2c2c1nc(N1CCCC1)n2Cc1ccccc1 |
| 124 to 125 | CCc1c(C)n(C)c(=O)n(-c2cc(OC(C)C)c(Cl)cc2F)c1=O |
| 140 to 144 | COC1(c2ccc(C(C)C)cc2OCc2ccccc2)C(=O)c2ccccc2C1=O |
| 178 | CNC(=O)NCCN1CCC(=C2c3ccccc3CCn3ccnc32)CC1 |
| 180 | O=C(O)C1=Cc2ccc(C(F)(F)F)cc2Oc2ccccc21 |
| 96 to 98 | COc1cc(Cn2cnc3cccnc32)ccc1C(=O)N(C(C)C)C1CCCCC1 |
| 136 to 137 | CCNc1nc(-c2ccccc2)ncc1[N+](=O)[O-] |
| 115 | O=c1oc2c(c(OCCN3CCOCC3)c1-c1ccccc1)CCCC2 |
| 195 to 197 | COCc1nc2c(N)nc3c(c2n1CC(C)(C)OCCS(C)(=O)=O)CCCC3 |
| 129 to 134 | COC(=O)CNC(=O)CNC(=O)C(CCC(N)=O)NC(=O)OCc1ccccc1 (stereo not drawn) (Cbz-[ξQ]-Gly-Gly-OMe) |
| 190 to 195 | Nc1nc(Cl)c2ncn(OCCOCP(=O)(O)O)c2n1 |
| 248 to 260 | NC(=O)N1C(=O)C(C(=O)c2ccco2)c2nc(Cl)ccc21 (stereo not given) |
| 150 to 152 | O=C(O)Cc1ccc(Oc2ccccc2CC(=O)O)cc1 |
| 120 to 122 | COc1cc(OC)c(-c2cc3ccccc3n2C(=O)OC(C)(C)C)cc1/C=C/C(=O)c1ccc(S(N)(=O)=O)cc1 |
| 268 to 272 | NCc1ccc(C2CCN(c3cc4c(cc3F)c(=O)c(C(=O)O)cn4C3CC3)C2)cc1 (stereo not given) |
| 147 to 150 | CC(C)(C)CNc1nc(Cl)cc(N2CCCC2)n1 |
| 221 to 222 | Cc1cc(=O)c(-c2ccc(Cl)cc2)c(C)n1C |

| melting point [°C] | Structure (SMILES) |
| --- | --- |
| 193 to 196 | Nc1cc(-c2c[nH]cn2)ccn1 |
| 124 to 126 | OC1Cc2ccccc2Sc2cc(Cl)c(Cl)cc21 (stereo not given) |
| 80 to 83 | COc1ccc(Cl)cc1C(=O)N(C)OC |
| 123 to 127 | CCc1c(-c2ccc(OCc3ccccc3)cc2)c2ccc3c(N)ccc1n32 |
| 150 to 152 | CC(C)(C)c1ccc2c(Br)c3ccc(C(C)(C)C)cc3c(Br)c2c1 |
| 144 to 145 | COC(=O)c1cc(O)c(O)c([N+](=O)[O-])c1 |
| 124 to 127 | CCOC1=CC(=O)C(C(=O)OC)C(c2ccc(C)cc2)C1 (stereo not given) |
| 59 to 61 | COC(=O)CCC(=O)N[C@@H](CO)c1ccccc1 |
| 169 to 171 | CN1C(=O)c2cc(N/C(=C3\C(=O)Nc4ccc([N+](=O)[O-])cc43)c3ccccc3)ccc2C(C)(C)C1=O |
| 124 to 127 | COc1ccc(N(N)c2ncnc3cc(Cl)ccc23)cc1 |
| 128 to 129 | COCn1cc(-c2coc3ccc(-c4nnc(C)o4)cc23)cn1 |
| 120 to 121 | CCOC(=O)N=NC(=O)OCC |
| 155 to 157 | CCOC(=O)c1c(N)n(C)c2cc(Cl)ccc12 |
| 191 to 192 | CCOc1ccc(-c2ncc(C#N)c(Cl)n2)cc1 |
| 91 to 93 | Cc1cc(SC(C)C)c(NC(=O)CCCCCCSc2nc3c(C)c(Cl)cc(C(C)C)c3o2)c(SC(C)C)n1 |
| 92 to 100 | Cc1ccc(S(=O)(=O)Nc2ccccc2C(=O)C2CC2)cc1 |
| 159 to 160 | COc1cc2sc(C#N)cc2c(Cl)c1OC |
| 198 to 201 | O=C(c1ccccc1)N1C(=O)c2cccnc2Nc2ccccc21 |
| 98 to 101 | CCCCCCCCC1(CCn2ccnc2)SCCS1 |
| 261 to 263 | O=C(O)CCC(=O)N1CCN(c2ccncc2)CC1 |
| 169 to 171 | CCCc1c(OCCCCCC(=O)c2cc(O)c(O)c(C(C)C)c2)ccc(C(=O)O)c1O |
| 90 to 95 | CC(C)(C)c1cc(CN2CC(N(O)C(N)=O)C2)cc(C(C)(C)C)c1O |
| 33 to 34.5 | CCCCCCCCSCCCC(=O)O |

| Structure (SMILES) | melting point [°C] |
| --- | --- |
| O=Cc1cc2cccc3ccc4cccc1c4c32 | 172 to 174 |
| Cc1cc2c(cc1O)C(C)(C)CC1(CC(C)(C)c3cc(OCCCC(=O)O)c(C)cc3O1)O2 (stereo not given) | 173 to 174 |
